One may read the IC50 as the concentration that inhibits the measured activity by half. One may read the MIC as the lowest concentration that inhibits growth of the organism.

The structures appear in SMILES notation. Values after ≈ are worked out from the molar mass of the structure shown.

These results are taken from US11130741B2 (Bioimics AB, priority 2016, dated 2021).

Test [1] concerns E. coli RNase P RNA, M1 RNA. Briefly: Inhibition of bacterial RNase P activity, IC50 determination (cleavage of pATSerUG by M1 RNA). Format: biochemical. Particulars: NI = No inhibition.
Test [2] relates to Staphylococcus aureus (ATCC25923). Kind of test: MIC, broth microdilution (CLSI), Staphylococcus aureus ATCC25923. To be noted: ATCC25923, read-out: S. aureus ("Clinical") MIC. On the technique in general: In broth dilution the organism is exposed to a series of concentrations in liquid medium.
Protocol: Initial minimal inhibitory concentration (MIC) tests were made on two bacterial strains: • Escherichia coli (ATCC25922) • Staphylococcus aureus (ATCC25923).
Minimal Inhibitory Concentration (MIC)
MIC values were determined using the standard broth microdilution procedure based on the guidelines by the Clinical and Laboratory Standards Institute (CLSI). Briefly, the compounds were dissolved in DMSO to 10 mM. They were diluted in cation-adjusted Mueller-Hinton broth (CAMHB) to four times the highest concentration tested. A serial 2-fold dilution in CAMHB was done in microdilution plates. The inoculum of bacterial strain to be tested was prepared by making a suspension of colonies from an 18 to 24 hours old plate in CAMHB. The inoculum was diluted so that, after inoculation, each well contained approximately 5×10^5 CFU/mL. To a volume of 50 μl compound in CAMHB an equal volume of inoculum was added. The tray was sealed in a plastic bag and incubated at 35° C. for 16 to 20 hours. To aid in the detection of growth the dye resazurin was added to a final concentration 0.001% and incubated at room temperature for 1 h. Reduction of resazurin, and therefore bacterial growth, was seen as a change from blue to pink.
In test [3] the test system is Escherichia coli (ATCC25922). Kind of test: MIC, broth microdilution (CLSI), Escherichia coli ATCC25922. Particulars: ATCC25922, read-out: E. coli MIC, Table 15, NI = No inhibition.

Compound `N[C@H]1CCC[C@@H](CNc2cc(C(F)(F)F)cc3c2Nc2ccccc2S3)C1` [compound 182, N-(((1R,3S)-3-aminocyclohexyl)methyl)-3-(trifluoromethyl)-10H-phenothiazin-1-amine] yielded a half-maximal inhibitory concentration (IC50) in test [1] of 61 µM. Besides, the minimum inhibitory concentration (MIC) was found to be 3 µg/mL (≈ 7.62 µM) in test [2] and 25 µg/mL (≈ 63.5 µM) in test [3].

`Clc1cc(NC2CCNCC2)c2c(c1)Sc1ccccc1N2` [compound 184, 3-chloro-N-(piperidin-4-yl)-10H-phenothiazin-1-amine] yielded a concentration for half-maximal inhibition (IC50) in test [1] of 11 µM. For the same compound, the minimum inhibitory concentration (MIC) in test [2] is 5 µg/mL (≈ 15.1 µM); in test [3] it was 21 µg/mL (≈ 63.3 µM).

`N[C@H]1CCC[C@H](CNc2cc(C(F)(F)F)cc3c2Nc2ccccc2S3)C1.O=C(O)C(F)(F)F` [compound 187, N-(((1S,3S)-3-aminocyclohexyl)methyl)-3-(trifluoromethyl)-10H-phenothiazin-1-amine 2,2,2-trifluoroacetate] returned a 50% inhibitory concentration (IC50) in test [1] of 53 µM. Moreover, the MIC in test [2] turned out to be 4 µg/mL; in test [3], 16 µg/mL.

In test [1], `O=C(Nc1cc(C(F)(F)F)cc2c1Nc1ccccc1S2)C1CNC1` [compound 188, N-(3-(trifluoromethyl)-10H-phenothiazin-1-yl)azetidine-3-carboxamide] returned a concentration for half-maximal inhibition (IC50) of more than 100 µM. Besides, the MIC in test [2] was 12 µg/mL (≈ 32.8 µM); in test [3], 23 µg/mL (≈ 62.9 µM).

Take `NC[C@H]1CCC[C@H](CNc2cc(C(F)(F)F)cc3c2Nc2ccccc2S3)C1` [compound 189, N-(((1S,3S)-3-(aminomethyl)cyclohexyl)methyl)-3-(trifluoromethyl)-10H-phenothiazin-1-amine]: in test [1], the IC50 was more than 100 µM. The MIC in test [2] came to 3 µg/mL (≈ 7.36 µM); in test [3] it was 52 µg/mL (≈ 128 µM).

As for `CC(Nc1cc(C(F)(F)F)cc2c1Nc1ccccc1S2)C1CCCC(N)C1` (stereo not drawn) [compound 190, N-(1-(3-aminocyclohexyl)ethyl)-3-(trifluoromethyl)-10H-phenothiazin-1-amine], half-maximal inhibition in test [1] (IC50) was put at 82 µM. The MIC in test [2] is 3 µg/mL (≈ 7.36 µM); in test [3] it was 26 µg/mL (≈ 63.8 µM).

Compound `NC1CCCC(c2nc3cc(C(F)(F)F)cc4c3n2-c2ccccc2S4)C1` (stereo not drawn) [compound 191, 3-(4-(trifluoromethyl)imidazo[4,5,1-kl]phenothiazin-1-yl)cyclohexan-amine] returned an IC50 in test [1] of 19 µM. Besides, the MIC was found to be 6 µg/mL (≈ 15.4 µM) in test [2] and 50 µg/mL (≈ 128 µM) in test [3].

The compound `FC(F)(F)c1cc(NC2CNC2)c2c(c1)Sc1ccccc1N2` [compound 193, N-(azetidin-3-yl)-3-(trifluoromethyl)-10H-phenothiazin-1-amine] gave an IC50 in test [1] of 180 µM. Moreover, the figures for the MIC in test [2] and in test [3] were 5 µg/mL (≈ 14.8 µM) and 22 µg/mL (≈ 65.2 µM), respectively.

`NCCN1CC(C(=O)Nc2cc(C(F)(F)F)cc3c2Nc2ccccc2S3)C1` [compound 196] had a 50% inhibitory concentration (IC50) in test [1] of more than 100 µM. Further, the values for the MIC in test [2] and in test [3] were 26 µg/mL (≈ 63.7 µM) and 52 µg/mL (≈ 127 µM), respectively.

`NCCN1CCC(C(=O)Nc2cc(C(F)(F)F)cc3c2Nc2ccccc2S3)CC1` [compound 199] gave an IC50 in test [1] of 65 µM. The minimal inhibitory concentration (MIC) in test [2] and in test [3] was 28 µg/mL (≈ 64.1 µM) throughout.

`NCCN1CCCC(C(=O)Nc2cc(C(F)(F)F)cc3c2Nc2ccccc2S3)C1` (stereo not drawn) [compound 203]: in test [1], the IC50 was 4 µM. The minimal inhibitory concentration (MIC) in test [2] and in test [3] was 14 µg/mL (≈ 32.1 µM) each time.

In the case of `NC1CCCC(Nc2cc(C(F)(F)F)cc3c2Nc2ccccc2S3)C1` (stereo not drawn) [compound 204, N1-(3-(trifluoromethyl)-10H-phenothiazin-1-yl)cyclohexane-1,3-diamine], half-maximal inhibition in test [1] (IC50) was put at 8 µM. For the same compound, the values for the MIC in test [2] and in test [3] were 3 µg/mL (≈ 7.91 µM) and 12 µg/mL (≈ 31.6 µM), respectively.

`NCCN1CCC(Nc2cc(C(F)(F)F)cc3c2Nc2ccccc2O3)CC1` [compound 206, N-(1-(2-aminoethyl)piperidin-4-yl)-3-(trifluoromethyl)-10H-phenoxazin-1-amine] gave a concentration for half-maximal inhibition (IC50) in test [1] of 89 µM. In addition, the MIC in test [2] was found to be 25 µg/mL (≈ 63.7 µM); in test [3], 50 µg/mL (≈ 127 µM).

The compound `O=C(Nc1cc(C(F)(F)F)cc2c1Nc1ccccc1S2)C1CCNCC1` [compound 207, N-(3-(trifluoromethyl)-10H-phenothiazin-1-yl)piperidine-4-carboxamide] came in with an IC50 in test [1] of 109 µM. Also, the minimum inhibitory concentration (MIC) in test [2] turned out to be 25 µg/mL (≈ 63.5 µM); in test [3], 50 µg/mL (≈ 127 µM).

The compound `NCCN1CC(Nc2cc(C(F)(F)F)cc3c2Nc2ccccc2S3)C1` [compound 208, N-(1-(2-aminoethyl)azetidin-3-yl)-3-(trifluoromethyl)-10H-phenothiazin-1-amine] gave an IC50 in test [1] of 258 µM. Also, the MIC in test [2] is 12 µg/mL (≈ 31.5 µM); in test [3], 24 µg/mL (≈ 63.1 µM).

Turning to `NNC(=O)c1cc(NC2CCNCC2)c2c(c1)Sc1ccccc1N2.O=C(O)C(F)(F)F` [compound 210, 1-(piperidin-4-ylamino)-10H-phenothiazine-3-carbohydrazide 2,2,2-trifluoroacetate salt], in test [1], the 50% inhibitory concentration (IC50) is 95 µM. Further, the figures for the minimum inhibitory concentration (MIC) in test [2] and in test [3] were 60 µg/mL and more than 100 µg/mL, respectively.

On to `FC(F)(F)c1cc(NC2CCNCC2)c2c(c1)Sc1cc(-c3cc4ccccc4[nH]3)ccc1N2.O=C(O)C(F)(F)F` [compound 212, 7-(1H-indol-2-yl)-N-(piperidin-4-yl)-3-(trifluoromethyl)-10H-phenothiazin-1-amine trifluoroacetic Acid Salt], for which, in test [1] (trifluoroacetic Acid Salt), the IC50 was found to be 5 µM. The values for the MIC in test [2] and in test [3] were 19 µg/mL and more than 100 µg/mL, respectively.

Turning to `NCCN1CCC(Nc2cc(Cl)cc3c2Nc2ccccc2S3)CC1` [compound 214, N-(1-(2-aminoethyl)piperidin-4-yl)-3-chloro-10H-phenothiazin-1-amine], the concentration for half-maximal inhibition (IC50) in test [1] was more than 100 µM. The minimal inhibitory concentration (MIC) in test [2] amounted to 12 µg/mL (≈ 32 µM); in test [3], 24 µg/mL (≈ 64 µM).

Consider `N#Cc1cc(NC2CCN(CCN)CC2)c2c(c1)Sc1ccccc1N2` [compound 215, 1-((1-(2-aminoethyl)piperidin-4-yl)amino)-10H-phenothiazine-3-carbonitrile], for which, in test [1], the IC50 was more than 100 µM. In addition, the MIC in test [2] came out at 23 µg/mL (≈ 62.9 µM); in test [3] it was 47 µg/mL (≈ 129 µM).

With `NCCN(CCN)CCN1CCC(Nc2cc(C(F)(F)F)cc3c2Nc2ccccc2S3)CC1.O=C(O)C(F)(F)F` [compound 216, N1-(2-aminoethyl)-N1-(2-(4-((3-(trifluoromethyl)-10H-phenothiazin-1-yl)amino)piperidin-1-yl)ethyl)ethane-1,2-diamine 2,2,2-trifluoroacetate salt], the half-inhibitory concentration (IC50) in test [1] was determined as 5 µM. For the same compound, the minimum inhibitory concentration (MIC) in test [2] was 5 µg/mL; in test [3] it was 19 µg/mL.

Take `CN1c2ccccc2Sc2cc(C(F)(F)F)cc(NC3CCN(CCN)CC3)c21` [compound 218, N-(1-(2-aminoethyl)piperidin-4-yl)-10-methyl-3-(trifluoromethyl)-10H-phenothiazin-1-amine]: the IC50 in test [1] was determined as 68 µM. In addition, the MIC in test [2] and in test [3] was 7 µg/mL (≈ 16.6 µM) throughout.

Regarding `NCCN1CCCC(CNc2cc(C(F)(F)F)cc3c2Nc2ccccc2S3)C1` (stereo not drawn) [compound 220, N-((1-(2-aminoethyl)piperidin-3-yl)methyl)-3-(trifluoromethyl)-10H-phenothiazin-1-amine], in test [1], the IC50 is more than 100 µM. In addition, the MIC in test [2] and in test [3] was 7 µg/mL (≈ 16.6 µM) throughout.

Regarding `FC(F)(F)c1cc(NC2CCCNCC2)c2c(c1)Sc1ccccc1N2` (stereo not drawn) [compound 221, N-(azepan-4-yl)-3-(trifluoromethyl)-10H-phenothiazin-1-amine], the IC50 in test [1] is more than 100 µM. In addition, the MIC was 6 µg/mL (≈ 15.8 µM) in test [2] and 24 µg/mL (≈ 63.2 µM) in test [3].

`NCCCN1c2ccccc2Sc2cc(-c3cc4ccccc4n3CCN)ccc21.O=C(O)C(F)(F)F.O=C(O)C(F)(F)F` [compound 222, 3-(3-(1-(2-aminoethyl)-1H-indol-2-yl)-10H-phenothiazin-10-yl)propan-1-amine bis(2,2,2-trifluoroacetate) salt]: the 50% inhibitory concentration (IC50) in test [1] came to 18 µM. The minimum inhibitory concentration (MIC) in test [2] came to 3 µg/mL; in test [3], 5 µg/mL.

`FC(F)(F)c1cc(NC2CCNCC2)c2c(c1)Sc1cc(Cl)ccc1N2` [compound 223, 7-chloro-N-(piperidin-4-yl)-3-(trifluoromethyl)-10H-phenothiazin-1-amine] gave an IC50 in test [1] of 24 µM. Besides, the results for the MIC in test [2] and in test [3] were 3 µg/mL (≈ 7.5 µM) and 6 µg/mL (≈ 15 µM), respectively.

In test [1], `CNCCN1CCC(Nc2cc(CN)cc3c2Nc2ccccc2S3)CC1.O=C(O)C(F)(F)F` [compound 224, 3-(aminomethyl)-N-(1-(2-(methylamino)ethyl)piperidin-4-yl)-10H-phenothiazin-1-amine 2,2,2-trifluoroacetate salt] returned an IC50 of 68 µM. Further, the MIC in test [2] and in test [3] was 64 µg/mL each time.

Turning to `NCCN1CCCC(Nc2cc(C(F)(F)F)cc3c2Nc2ccccc2S3)CC1` (stereo not drawn) [compound 225, N-(1-(2-aminoethyl)azepan-4-yl)-3-(trifluoromethyl)-10H-phenothiazin-1-amine], the IC50 in test [1] was more than 100 µM. For the same compound, the MIC in test [2] worked out at 3 µg/mL (≈ 7.1 µM); in test [3], 7 µg/mL (≈ 16.6 µM).

For the compound `NCCN1CCC(Nc2cc(C(F)(F)F)cc3c2Nc2ccc(Cl)cc2S3)CC1` [compound 226, N-(1-(2-Aminoethyl)piperidin-4-yl)-7-chloro-3-(trifluoromethyl)-10H-phenothiazin-1-amine], half-maximal inhibition in test [1] (IC50) was put at 23 µM. The minimum inhibitory concentration (MIC) in test [2] was determined as 4 µg/mL (≈ 9.03 µM); in test [3], 14 µg/mL (≈ 31.6 µM).

The compound `NCCN1CCC(Nc2cc(C(F)(F)F)cc3c2Nc2ccc(CN)cc2S3)CC1.O=C(O)C(F)(F)F.O=C(O)C(F)(F)F` [compound 227, N-(1-(2-Aminoethyl)piperidin-4-yl)-7-(aminomethyl)-3-(trifluoromethyl)-10H-phenothiazin-1-amine bis(2,2,2-trifluoroacetate)] came in with an IC50 in test [1] of 7 µM. Also, the MIC in test [2] came to 5 µg/mL; in test [3], 43 µg/mL.

Compound `FC(F)(F)c1cc2c3c(c1)nc(C1CCNCC1)n3-c1ccccc1S2` [compound 232, 1-(piperidin-4-yl)-4-(trifluoromethyl) imidazo[4,5,1-kl]phenothiazine] had a concentration for half-maximal inhibition (IC50) in test [1] of 29 µM. For the same compound, the MIC in test [2] was 6 µg/mL (≈ 16 µM); in test [3], 24 µg/mL (≈ 63.9 µM).
